Laboratory results from patent US20260109707A1, “HETEROBIFUNCTIONAL COMPOUNDS AND METHODS OF TREATING DISEASE” (Halda Therapeutics OpCo. Inc., priority 2022, published 2026).
Read-outs that look alike come from different tables or passages of the source.

Assays:
[1] = tested on: VCaP cells; assay: Cellular growth inhibition assay for VCaP cells (CellTiter-Glo, 72 hours); type: cell-based, human
Experimental: VCaP cells were purchased from American Type Cell Culture (ATCC Cat #CRL2876) and then seeded on poly-D-lysine coated, black clear-bottom 384-well plates at 5000/well in 25 μL Dulbecco's Modified Eagle Medium (DMEM) supplemented with 10% w/w Fetal bovine serum (FBS) and 1% w/w Pen-Strep. Pen-Strep is a commercially available mixture of penicillin G and streptomycin, which is used in mammalian cell culture media to prevent bacterial contamination. Dulbecco's Modified Eagle Medium (DMEM) supplemented with 10% w/w fetal bovine serum (FBS) and 1% w/w Pen-Strep is herein referred to as Treatment Medium. Following seeding of cells in the plates, the plates were spun at 300×g for 30 seconds, then equilibrated to room temperature for 30 minutes, and then deposited in a humidified tissue culture incubator maintained at 37° C. with 5% C0-2.
At 24 hours after seeding of the cells, dilutions of test compound were prepared in DMSO and dissolved in Treatment Medium, to achieve a final DMSO concentration of 0.5% w/w, thereby providing the Test Compound Solution. A 25 μL aliquot of the Test Compound Solution was added to cells in the well plates. An equal volume of a solution containing DMSO and Treatment Medium was used as a negative control. Following treatment of cells with Test Compound Solution or said equal volume of a solution containing DMSO and Treatment Medium, the plates were spun at 300×g for 30 seconds, and then left in an incubator for 72 hours.
At the end of the treatment duration, cell viability was quantified with CellTiter-Glo 2.0 reagent (Promega Cat #G9243). For this purpose, plates were equilibrated to room temperature for 30 minutes, and then 25 μL of CellTiter-Glo 2.0 reagent was added to cells in the plate wells. Plates were then agitated on a shaker for two minutes at 500 rpm and subsequently incubated at room temperature for 10 minutes. Following incubation, the plates were spun at 3000×g for 30 seconds, then sealed with an optical adhesive cover, and luminescence readings were measured with an EnVision Plate Reader.
Data was normalized using zero luminescence for baseline. A four-parameter non-linear regression curve fit was applied to dose-response data in GraphPad Prism data analysis software to determine the half-maximal growth inhibitory concentration (GI50) for each test compound.

[2] = tested on: T-Rex 293 cell line SC3 cells lacking increased expression of androgen receptor protein; assay: Cellular growth inhibition assay, T-Rex 293 SC3 cells without doxycycline (CellTiter-Glo, 72 hours); type: cell-based; settings: T-Rex 293 cell line SC3 cells not exposed to doxycycline (lacking increased androgen receptor expression)
How it was run: (§1)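 Doxycycline (10 ng/mL) was either included or omitted to toggle wild-type androgen receptor expression in SC3 cells, a T-Rex 293 clone, grown in stripped-serum, phenol red-free medium. After 72 hours with compound, viable cells were quantified by CellTiter-Glo 2.0.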

[3] = tested on: T-Rex 293 cell line SC3 cells having increased expression of androgen receptor protein due to exposure to doxycycline; assay: Cellular growth inhibition assay, T-Rex 293 SC3 cells with doxycycline (CellTiter-Glo, 72 hours); type: cell-based; settings: T-Rex 293 SC3 cells with increased androgen receptor expression due to doxycycline (10 ng/mL)
How it was run: as §1

## Cc1sc2c(c1C)C(c1ccc(N3CCC4(CC3)CCN(c3ccc(C(=O)N[C@H]5CC[C@H](Oc6ccc(C#N)c(Cl)c6)CC5)nn3)C4)cn1)=NC1(CC1)c1nnc(C)n1-2 [I-502]
[1]; Homo sapiens, VCaP, 72 h
  GI50: > 3000 nM
[2]; 72 h
  GI50: > 3000 nM
[3]; 72 h
  GI50: < 500 nM

## Cc1sc2c(c1C)C(c1ccc(N[C@@H]3CCC[C@H](Nc4ncc(C(=O)N[C@H]5CC[C@H](Oc6ccc(C#N)c(Cl)c6)CC5)cn4)C3)cc1)=NC(Cc1ncco1)c1nnc(C)n1-2 (stereo partly drawn) [I-801]
[1]; Homo sapiens, VCaP, 72 h
  GI50: < 500 nM
[2]; 72 h
  GI50: < 500 nM
[3]; 72 h
  GI50: < 500 nM

## Cc1sc2c(c1C)C(c1ccc(OC3CCC4(CCCN(c5ccc(C(=O)N[C@H]6CC[C@H](Oc7ccc(C#N)c(Cl)c7)CC6)nn5)C4)C3)cc1)=N[C@@H](C)c1nnc(C)n1-2 (stereo partly drawn) [I-538]
[1]
  GI50: < 500 nM
[2]
  GI50: > 3000 nM
[3]
  GI50: < 500 nM

## Cc1sc2c(c1C)C(c1ccc(N3CCN(CC4CCN(c5ccc(C(=O)N[C@H]6CC[C@H](Oc7ccc(C#N)c(Cl)c7)CC6)nn5)CC4)CC3)cc1)=N[C@@H](C)c1nnc(C)n1-2 [I-498]
[1]; Homo sapiens, VCaP, 72 h
  GI50: < 500 nM
[2]; 72 h
  GI50: > 3000 nM
[3]; 72 h
  GI50: < 500 nM

## C#Cc1ccc(O[C@H]2CC[C@H](NC(=O)c3ccc(N4CCC(C5CN(c6ccc(C7=NC8(CC8)c8nnc(C)n8-c8sc(C)c(C)c87)cc6)C5)CC4)nn3)CC2)cc1Cl [I-450]
[1]; Homo sapiens, VCaP, 72 h
  GI50: < 500 nM
[2]; 72 h
  GI50: > 3000 nM
[3]; 72 h
  GI50: < 500 nM

## Cc1sc2c(c1C)C(c1ccc(CC3CCC4(CCCN(c5ccc(C(=O)N[C@H]6CC[C@H](Oc7ccc(C#N)c(Cl)c7)CC6)nn5)C4)C3)cn1)=N[C@@H](C)c1nnc(C)n1-2 (stereo partly drawn) [I-635]
[1]
  GI50: < 500 nM
[2]
  GI50: < 500 nM
[3]
  GI50: < 500 nM

## Cc1sc2c(c1C)C(c1ccc(CC3CCC4(CCCN(c5ccc(C(=O)N[C@H]6CC[C@H](Oc7ccc(C#N)c(Cl)c7)CC6)nn5)C4)C3)cc1)=N[C@@H](C)c1nnc(C)n1-2 (stereo partly drawn) [I-583]
[1]
  GI50: 1500 to 3000 nM
[2]
  GI50: < 500 nM
[3]
  GI50: < 500 nM

## Cc1sc2c(c1C)C(c1ccc(CC3CCC4(CCCN(c5ccc(C(=O)N[C@H]6CC[C@H](Oc7ccc(C#N)c(Cl)c7)CC6)nn5)C4)C3)cc1)=N[C@@H](C)c1nnc(C)n1-2 (stereo partly drawn) [I-585]
[1]
  GI50: > 3000 nM
[2]
  GI50: > 3000 nM
[3]
  GI50: < 500 nM

## Cc1sc2c(c1C)C(c1ccc(N3CC4(CC(CCc5ccc(C(=O)N[C@H]6CC[C@H](Oc7ccc(C#N)c(Cl)c7)CC6)nn5)C4)C3)cc1)=N[C@@H](C)c1nnc(C)n1-2 [I-594]
[1]; Homo sapiens, VCaP, 72 h
  GI50: 500 to 1500 nM
[2]; 72 h
  GI50: 500 to 1500 nM
[3]; 72 h
  GI50: < 500 nM

## Cc1sc2c(c1C)C(c1ccc(N3C[C@@]4(C)CN(c5ccc(C(=O)N[C@H]6CC[C@H](Oc7ccc(C#N)c(Cl)c7)CC6)nn5)C[C@@]4(C)C3)cc1)=N[C@@H](Cc1ncco1)c1nnc(C)n1-2 [I-826, 6-[(3aS,6aR)-3a,6a-dimethyl-2-[4-[(9S)-4,5,13-trimethyl-9-(oxazol-2-ylmethyl)-3-thia-1,8,11,12-tetrazatricyclo[8.3.0.02,6]trideca-2(6),4,7,10,12-pentaen-7-yl]phenyl]-1,3,4,6-tetrahydropyrrolo[3,4-c]pyrrol-5-yl]-N-[4-(3-chloro-4-cyano-phenoxy)cyclohexyl]pyridazine-3-carboxamide]
[1]; Homo sapiens, VCaP, 72 h
  GI50: < 500 nM
[2]; 72 h
  GI50: < 500 nM
[3]; 72 h
  GI50: < 500 nM

## Cc1sc2c(c1C)C(c1ccc(N3CCC4(CC3)CCN(c3ccc(C(=O)N[C@H]5CC[C@H](Oc6ccc(C#N)c(Cl)c6)CC5)nn3)CC4)cc1)=N[C@@H](C)c1nnc(C)n1-2 [I-485]
[1]; Homo sapiens, VCaP, 72 h
  GI50: < 500 nM
[2]; 72 h
  GI50: < 500 nM
[3]; 72 h
  GI50: < 500 nM

## Cc1sc2c(c1C)C(c1ccc(NCCCC3CCN(c4ncc(C(=O)N[C@H]5CC[C@H](Oc6ccc(C#N)c(Cl)c6)CC5)cn4)CC3)cc1)=NC(Cc1ncco1)c1nnc(C)n1-2 (stereo partly drawn) [I-806]
[1]; Homo sapiens, VCaP, 72 h
  GI50: < 500 nM
[2]; 72 h
  GI50: < 500 nM
[3]; 72 h
  GI50: < 500 nM

## Cc1sc2c(c1C)C(c1ccc(C3CCC4(CC3)CCN(c3ccc(C(=O)N[C@H]5CC[C@H](Oc6ccc(C#N)c(Cl)c6)CC5)nn3)C4)cn1)=NC1(CC1)c1nnc(C)n1-2 (stereo partly drawn) [I-718]
[1]
  GI50: < 500 nM
[2]
  GI50: > 3000 nM
[3]
  GI50: 1500 to 3000 nM

## Cc1sc2c(c1C)C(c1ccc(N3CC(CC4CCCN(c5ccc(C(=O)N[C@H]6CC[C@H](Oc7ccc(C#N)c(Cl)c7)CC6)nn5)C4)C3)cc1)=N[C@@H](C)c1nnc(C)n1-2 (stereo partly drawn) [I-577]
[1]
  GI50: 500 to 1500 nM
[2]
  GI50: < 500 nM
[3]
  GI50: < 500 nM

## CC[C@@H]1N=C(c2ccc(C3CCC4(CCN(c5ccc(C(=O)N[C@H]6CC[C@H](Oc7ccc(C#N)c(Cl)c7)CC6)nn5)CC4)C3)cc2)c2c(sc(C)c2C)-n2c(C)nnc21 (stereo partly drawn) [I-574]
[1]; Homo sapiens, VCaP, 72 h
  GI50: < 500 nM
[2]; 72 h
  GI50: > 3000 nM
[3]; 72 h
  GI50: < 500 nM
